Experimental data: patent US20240368159A1, “HPK1 DEGRADERS, COMPOSITIONS COMPRISING THE HPK1 DEGRADER, AND METHODS OF USING THE SAME” (BIOFRONT LTD, priority 2021, published 2024)
pIC50: −log10 of the molar value.

What follows are molecules tested against T1, HPK1 protein (Homo sapiens, UniProt Q92918) (assay: HPK1 enzyme inhibition assay (ADP-Glo)). Details: MBP substrate, ATP, ADP-Glo readout.
T1 construct: purchased Signal Chem M23-11G-10
T1 sequence (Q92918 1-346 limits assumed): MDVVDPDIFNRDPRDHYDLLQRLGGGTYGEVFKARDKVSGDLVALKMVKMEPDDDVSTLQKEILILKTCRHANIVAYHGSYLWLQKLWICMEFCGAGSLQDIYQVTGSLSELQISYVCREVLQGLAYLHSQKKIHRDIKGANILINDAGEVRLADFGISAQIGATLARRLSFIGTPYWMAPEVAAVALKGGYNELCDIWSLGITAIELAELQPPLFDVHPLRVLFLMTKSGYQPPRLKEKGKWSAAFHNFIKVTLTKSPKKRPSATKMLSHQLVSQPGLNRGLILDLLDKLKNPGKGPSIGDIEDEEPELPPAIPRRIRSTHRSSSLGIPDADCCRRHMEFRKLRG
Assay type: biochemical
Method: The compound was dissolved in 100% DMSO at the concentration of 10 mM. The HPK1 protein was purchased from Signal Chem (M23-11G-10). 2.5 μL per well of 2×HPK1 protein was added to assay plate containing the test compound, centrifuged at 1500 rpm for 1 minute, and then incubated at 25° C. for 60 minutes. MBP protein was purchased from Signal Chem (M42-51N) and ATP was purchased from Promega (V9102). The two were added 2.5 μL per well mixture of 2×MBP (0.2 ug/ul) and ATP (20 μM), centrifuged at 1500 rpm for 1 minute, then incubated at 25° C. for 60 minutes. Then added 5 μL of ADP-Glo from Promega (V9102) to the assay plate and depleted the unconsumed ATP for 60 minutes. Then centrifuged at 1500 rpm for 1 minute and incubated at 25° C. for 60 minutes. Finally, 10 μL of the kinase assay reagent from Promega (V9102) was added to the assay plate to convert ADP to ATP, centrifuged at 1500 rpm for 1 minute, incubate at 25° C. for 40 minutes. After 40 minutes incubation, the […] was determined. Based on the results, the IC50 value of the compound was calculated.

Question: With `O=C1CCN(c2cnc3cc(C4CCN(CCCN5CCN(c6cccc(-c7cnc8[nH]cc(C9CC9)c8c7Cl)c6)C(=O)C5)CC4)ccn23)C(=O)N1` [Example 96, 1-(7-(1-(3-(4-(3-(4-chloro-3-cyclopropyl-1H-pyrrolo[2,3-b]pyridin-5-yl)phenyl)-3-oxopiperazin-1-yl)propyl)piperidin-4-yl)imidazo[1,2-a]pyridin-3-yl)dihydro pyrimidine-2,4 (1H,3H)-dione] as the molecule, how does the pIC50 read?
Answer: ≥ 8.00

Question: `CCc1c[nH]c2ncc(-c3cccc(N4CCN(C(=O)CCCCCCCN(C)c5cccc6c5CN(C5CCC(=O)NC5=O)C6=O)CC4=O)c3)c(Cl)c12` (stereo not shown) [Example 11, 3-(4-((8-(4-(3-(4-chloro-3-ethyl-1H-pyrrolo[2,3-b]pyridin-5-yl)phenyl)-3-oxopiperazin-1-yl)-8-oxooctyl)(methyl)amino)-1-oxoisoindolin-2-yl)piperidine-2,6-dione] was tested. Which pIC50 did it give?
Answer: 6.00 to 7.00

Question: How did the pIC50 turn out when `CCc1c[nH]c2ncc(-c3cccc(N4CCN(C(=O)CCCCCCCCCOc5cccc6c5CN(C5CCC(=O)NC5=O)C6=O)CC4=O)c3)c(Cl)c12` (stereo not shown) [Example 7, 3-(4-((10-(4-(3-(4-chloro-3-ethyl-1H-pyrrolo[2,3-b]pyridin-5-yl)phenyl)-3-oxopiperazin-1-yl)-10-oxodecyl)oxy)-1-oxoisoindolin-2-yl)piperidine-2,6-dione] was run?
Answer: 6.00 to 7.00

Question: `CCc1c[nH]c2ncc(-c3cccc(N4CCN(C(=O)COc5cccc6c5CN(C5CCC(=O)NC5=O)C6=O)CC4=O)c3)c(Cl)c12` (stereo not shown) [Example 3] was tested. Which pIC50 did it give?
Answer: ≥ 8.00

Question: How did the pIC50 turn out when `CCc1c[nH]c2ncc(-c3cccc(N4CCN(C(=O)CCN5CCN(c6cccc7c6C(=O)N(C6CCC(=O)NC6=O)C7=O)CC5)CC4=O)c3)c(Cl)c12` (stereo not shown) [Example 20, 4-(4-(3-(4-(3-(4-chloro-3-ethyl-1H-pyrrolo[2,3-b]pyridin-5-yl)phenyl)-3-oxopiperazin-1-yl)-3-oxopropyl)piperazin-1-yl)-2-(2,6-dioxopiperidin-3-yl)isoindoline-1,3-dione] was run?
Answer: 7.00 to 8.00

Question: `CCc1c[nH]c2ncc(-c3cccc(N4CCN(C(=O)CCCCCOc5ccc6c(c5)C(=O)N(C5CCC(=O)NC5=O)C6)CC4=O)c3)c(Cl)c12` (stereo not shown) [Example 68, 3-(6-((6-(4-(3-(4-chloro-3-ethyl-1H-pyrrolo[2,3-b]pyridin-5-yl)phenyl)-3-oxopiperazin-1-yl)-6-oxohexyl)oxy)-1-oxoisoindolin-2-yl)piperidine-2,6-dione] was tested. Which pIC50 did it give?
Answer: 7.00 to 8.00

Question: With `CCc1c[nH]c2ncc(-c3cccc(N4CCN(C(=O)COC5CN(c6cccc7c6C(=O)N(C6CCC(=O)NC6=O)C7=O)C5)CC4=O)c3)c(Cl)c12` (stereo not shown) [Example 18, 4-(3-(2-(4-(3-(4-chloro-3-ethyl-1H-pyrrolo[2,3-b]pyridin-5-yl)phenyl)-3-oxopiperazin-1-yl)-2-oxoethoxy)azetidin-1-yl)-2-(2,6-dioxopiperidin-3-yl)isoindoline-1,3-dione] as the molecule, how does the pIC50 read?
Answer: 7.00 to 8.00

Question: How did the pIC50 turn out when `CCc1c[nH]c2ncc(-c3cccc(N4CCN(C(=O)CCCOc5cccc6c5CN(C5CCC(=O)NC5=O)C6=O)CC4=O)c3)c(Cl)c12` (stereo not shown) [Example 4, 3-(4-(4-(4-(3-(4-chloro-3-ethyl-1H-pyrrolo[2,3-b]pyridin-5-yl)phenyl)-3-oxopiperazin-1-yl)-4-oxobutoxy)-1-oxoisoindolin-2-yl)piperidine-2,6-dione] was run?
Answer: 7.00 to 8.00

Question: How did the pIC50 turn out when `CCc1c[nH]c2ncc(-c3cccc(N4CCN(CC(=O)N5CCN(c6ccc7c(c6)C(=O)N(C6CCC(=O)NC6=O)C7=O)CC5)CC4=O)c3)c(Cl)c12` (stereo not shown) [Example 34, 5-(4-(2-(4-(3-(4-chloro-3-ethyl-1H-pyrrolo[2,3-b]pyridin-5-yl)phenyl)-3-oxopiperazin-1-yl)acetyl)piperazin-1-yl)-2-(2,6-dioxopiperidin-3-yl)isoindoline-1,3-dione] was run?
Answer: 7.00 to 8.00

Question: How did the pIC50 turn out when `CCc1c[nH]c2ncc(-c3cccc(N4CCN(C(=O)CCCCCN(C)c5cccc6c5CN(C5CCC(=O)NC5=O)C6=O)CC4=O)c3)c(Cl)c12` (stereo not shown) [Example 14, 3-(4-((6-(4-(3-(4-chloro-3-ethyl-1H-pyrrolo[2,3-b]pyridin-5-yl)phenyl)-3-oxopiperazin-1-yl)-6-oxohexyl)(methyl)amino)-1-oxoisoindolin-2-yl)piperidine-2,6-dione] was run?
Answer: 7.00 to 8.00

Question: `CCc1c[nH]c2ncc(-c3cccc(N4CCN(C(=O)CCCCCNc5ccc6c(c5)C(=O)N(C5CCC(=O)NC5=O)C6=O)CC4=O)c3)c(Cl)c12` (stereo not shown) [Example 19, 5-((6-(4-(3-(4-chloro-3-ethyl-1H-pyrrolo[2,3-b]pyridin-5-yl)phenyl)-3-oxopiperazin-1-yl)-6-oxohexyl)amino)-2-(2,6-dioxopiperidin-3-yl)isoindoline-1,3-dione] was tested. Which pIC50 did it give?
Answer: 7.00 to 8.00

Question: With `CCc1c[nH]c2ncc(-c3cccc(N4CCN(C(=O)COC5CCN(c6cccc7c6C(=O)N(C6CCC(=O)NC6=O)C7=O)CC5)CC4=O)c3)c(Cl)c12` (stereo not shown) [Example 17, 4-(4-(2-(4-(3-(4-chloro-3-ethyl-1H-pyrrolo[2,3-b]pyridin-5-yl)phenyl)-3-oxopiperazin-1-yl)-2-oxoethoxy)piperidin-1-yl)-2-(2,6-dioxopiperidin-3-yl)isoindoline-1,3-dione] as the molecule, how does the pIC50 read?
Answer: 6.00 to 7.00

Question: `CCc1c[nH]c2ncc(-c3cccc(N4CCN(CCc5ccc6c(c5)C(=O)N(C5CCC(=O)NC5=O)C6=O)CC4=O)c3)c(Cl)c12` (stereo not shown) [Example 97, 5-(2-(4-(3-(4-chloro-3-ethyl-1H-pyrrolo[2,3-b]pyridin-5-yl)phenyl)-3-oxopiperazin-1-yl)ethyl)-2-(2,6-dioxopiperidin-3-yl)isoindoline-1,3-dione] was tested. Which pIC50 did it give?
Answer: ≥ 8.00

Question: `CCc1c[nH]c2ncc(-c3cccc(N4CCN(C(=O)CCCCCCCOc5cccc6c5C(=O)N(C5CCC(=O)NC5=O)C6=O)CC4=O)c3)c(Cl)c12` (stereo not shown) [Example 9, 4-((8-(4-(3-(4-chloro-3-ethyl-1H-pyrrolo[2,3-b]pyridin-5-yl)phenyl)-3-oxopiperazin-1-yl)-8-oxooctyl)oxy)-2-(2,6-dioxopiperidin-3-yl)isoindoline-1,3-dione] was tested. Which pIC50 did it give?
Answer: 7.00 to 8.00

Question: How did the pIC50 turn out when `CCc1c[nH]c2ncc(-c3cccc(N4CCN(C(=O)CCCCCCCOc5cccc6c5CN(C5CCC(=O)N(C)C5=O)C6=O)CC4=O)c3)c(Cl)c12` (stereo not shown) [Example 2, 3-(4-((8-(4-(3-(4-chloro-3-ethyl-1H-pyrrolo[2,3-b]pyridin-5-yl)phenyl)-3-oxopiperazin-1-yl)-8-oxooctyl)oxy)-1-oxoisoindolin-2-yl)-1-methylpiperidine-2,6-dione] was run?
Answer: 6.00 to 7.00

Question: `O=C1CCC(N2C(=O)c3ccc(CCN4CCC(OC(=O)N5CCN(c6cccc(-c7cnc8[nH]cc(C9CC9)c8c7Cl)c6)C(=O)C5)CC4)cc3C2=O)C(=O)N1` (stereo not shown) [Example 98, 1-(2-(2-(2,6-dioxopiperidin-3-yl)-1,3-dioxoisoindolin-5-yl)ethyl)piperidin-4-yl 4-(3-(4-chloro-3-cyclopropyl-1H-pyrrolo[2,3-b]pyridin-5-yl)phenyl)-3-oxopiperazine-1-carboxylate] was tested. Which pIC50 did it give?
Answer: 7.00 to 8.00

Question: With `CCc1c[nH]c2ncc(-c3cccc(N4CCN(C(=O)CCCCCCOc5cccc6c5CN(C5CCC(=O)NC5=O)C6=O)CC4=O)c3)c(Cl)c12` (stereo not shown) [Example 6, 3-(4-((7-(4-(3-(4-chloro-3-ethyl-1H-pyrrolo[2,3-b]pyridin-5-yl)phenyl)-3-oxopiperazin-1-yl)-7-oxoheptyl)oxy)-1-oxoisoindolin-2-yl)piperidine-2,6-dione] as the molecule, how does the pIC50 read?
Answer: 7.00 to 8.00

Question: With `CCc1c[nH]c2ncc(-c3cccc(N4CCN(C(=O)CCCCCOc5cccc6c5CN(C5CCC(=O)NC5=O)C6=O)CC4=O)c3)c(Cl)c12` (stereo not shown) [Example 5, 3-(4-((6-(4-(3-(4-chloro-3-ethyl-1H-pyrrolo[2,3-b]pyridin-5-yl)phenyl)-3-oxopiperazin-1-yl)-6-oxohexyl)oxy)-1-oxoisoindolin-2-yl)piperidine-2,6-dione] as the molecule, how does the pIC50 read?
Answer: 7.00 to 8.00

Question: `CCc1c[nH]c2ncc(-c3cccc(N4CCN(C(=O)CCCCCCCOc5ccc6c(c5)C(=O)N(C5CCC(=O)NC5=O)C6)CC4=O)c3)c(Cl)c12` (stereo not shown) [Example 65, 3-(6-((8-(4-(3-(4-chloro-3-ethyl-1H-pyrrolo[2,3-b]pyridin-5-yl)phenyl)-3-oxopiperazin-1-yl)-8-oxooctyl)oxy)-1-oxoisoindolin-2-yl)piperidine-2,6-dione] was tested. Which pIC50 did it give?
Answer: 7.00 to 8.00

Question: How did the pIC50 turn out when `CCc1c[nH]c2ncc(-c3cccc(N4CCN(C(=O)CCCOc5ccc6c(c5)C(=O)N(C5CCC(=O)NC5=O)C6)CC4=O)c3)c(Cl)c12` (stereo not shown) [Example 67] was run?
Answer: 7.00 to 8.00

Question: `CCc1c[nH]c2ncc(-c3cccc(N4CCN(C(=O)COc5ccc6c(c5)C(=O)N(C5CCC(=O)NC5=O)C6)CC4=O)c3)c(Cl)c12` (stereo not shown) [Example 66] was tested. Which pIC50 did it give?
Answer: ≥ 8.00

Question: `CCc1c[nH]c2ncc(-c3cccc(N4CCN(CCNc5ccc6c(c5)C(=O)N(C5CCC(=O)NC5=O)C6=O)CC4=O)c3)c(Cl)c12` (stereo not shown) [Example 60, 5-((2-(4-(3-(4-chloro-3-ethyl-1H-pyrrolo[2,3-b]pyridin-5-yl)phenyl)-3-oxopiperazin-1-yl)ethyl)amino)-2-(2,6-dioxopiperidin-3-yl)isoindoline-1,3-dione] was tested. Which pIC50 did it give?
Answer: 7.00 to 8.00
